Biological target: human P2X7 (Homo sapiens (Human), UniProt Q99572)
Experiment: Human P2X7 functional assay (Ca2+ influx, Fluo-4, FDSS)
Format: cell-based
Conditions: antagonistic activity with respect to the human P2X7 receptor; BzATP final concentration 80 microM
Experimental: The ability of the 5,6,7,8-tetrahydroquinoline and 6,7-dihydro-5H-cyclopenta[b]pyridine derivatives of the formula (I) to inhibit the P2X7 channel was measured by Ca^2+ influx assay and electrophysiology assay described below.
Human P2X7 Functional Assay
The functional activity of compounds was determined by measuring changes in intracellular calcium concentration using a Ca^2+-sensitive fluorescent dye, Fluo-4 (Molecular Probes). The changes in fluorescent signal were monitored by the cell imaging technology by Hamamatsu Photonics's Functional Drug Screening System (FDSS). Increases in intracellular Ca^2+ concentration were readily detected upon activation with BzATP.
HEK293 cells stably expressing human P2X7 (GenBank accession number BC011913) carrying a C-terminal FLAG tag were grown in T225 flasks, in a 5% CO2 humidified incubator to about 80% confluence. Media composition consisted of Dulbecco's Modified Eagle Medium (high glucose), 10% fetal bovine serum ([…]), 100 units/[…] Penicillin, 100 microg/mL Streptomycin and 250 microg/mL Geneticine.
1. Plate-out HEK293-human P2X7 cells (40 microL medium containing 10,000 cells per well) into poly-D-lysine coated 384-well plates (Corning) at 24 h prior to assay.
2. Incubate at 37° C. in 5% CO2.
3. Incubate the plate at 37° C. in 5% CO2 for 1 h.
5. Test compounds were prepared at 100× the test concentration in DMSO by serial dilution with Biomek-FX liquid handling instrument. 33× diluted compound solutions in assay buffer were prepared in intermediate compound plate with Biomek-NX liquid handling instrument. A further 3× dilution occurred in below steps 6 and 7.
6. Add 20 microL of 33× diluted compound solutions into each well and leave the plate for 10 min under the dark at room temperature.
7. Measure activity by FDSS as follows: • Set the assay plate on the stacker of FDSS. • Start the detection of fluorescence intensity at 540 nm by 480 nm exicitation. • After 30 seconds, add 20 microL of assay buffer containing 240 microM BzATP (final concentration 80 microM).
IC50 values for compounds of the present invention were determined from 7-point dose-response studies. Curves were generated using the average of duplicate wells for each data point. Finally, the IC50 values are calculated with the best-fit dose curve determined by XLfit (ID Business Solutions Ltd.).

human P2X7, sequence (Q99572 whole entry): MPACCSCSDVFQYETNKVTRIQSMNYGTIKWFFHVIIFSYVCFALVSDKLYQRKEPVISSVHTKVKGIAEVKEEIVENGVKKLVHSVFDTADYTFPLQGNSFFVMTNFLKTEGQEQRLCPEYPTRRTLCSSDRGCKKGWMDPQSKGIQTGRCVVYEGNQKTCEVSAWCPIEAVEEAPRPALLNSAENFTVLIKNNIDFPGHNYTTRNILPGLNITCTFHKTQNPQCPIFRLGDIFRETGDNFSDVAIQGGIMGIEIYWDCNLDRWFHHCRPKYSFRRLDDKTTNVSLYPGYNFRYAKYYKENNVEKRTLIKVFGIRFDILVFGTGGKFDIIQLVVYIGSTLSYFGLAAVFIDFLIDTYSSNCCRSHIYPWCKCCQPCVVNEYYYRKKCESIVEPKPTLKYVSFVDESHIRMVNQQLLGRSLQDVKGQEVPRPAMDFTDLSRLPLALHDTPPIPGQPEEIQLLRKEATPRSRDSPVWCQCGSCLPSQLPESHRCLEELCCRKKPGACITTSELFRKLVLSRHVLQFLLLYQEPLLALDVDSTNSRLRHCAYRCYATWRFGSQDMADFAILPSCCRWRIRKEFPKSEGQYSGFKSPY

SMILES | IC50 [nM]
O=C(NCc1ccccc1F)[C@]1(F)CC[C@H](O)c2ncccc21 [Example 223, (5S,8S)-5-fluoro-N-(2-fluorobenzyl)-8-hydroxy-5,6,7,8-tetrahydroquinoline-5-carboxamide] | 301 to 1000
COc1cccc(CNC(=O)[C@]2(F)CC[C@H](O)c3ncccc32)c1Cl [Example 224, (5S,8S)-N-(2-chloro-3-methoxybenzyl)-5-fluoro-8-hydroxy-5,6,7,8-tetrahydroquinoline-5-carboxamide] | 301 to 1000
O=C(N[C@H]1CCC[C@@H]1OCc1ccccc1)[C@]1(F)CC[C@H](O)c2ncccc21 [Example 225, (5S,8S)-N-((1S,2S)-2-(benzyloxy)cyclopentyl)-5-fluoro-8-hydroxy-5,6,7,8-tetrahydroquinoline-5-carboxamide] | 301 to 1000
O=C(N[C@H]1CCc2ccccc21)[C@]1(F)CC[C@H](O)c2ncccc21 [Example 226, (5S,8S)-N-((S)-2,3-dihydro-1H-inden-1-yl)-5-fluoro-8-hydroxy-5,6,7,8-tetrahydroquinoline-5-carboxamide] | 1000 to 3000
CC(C)(C)CCNC(=O)[C@]1(F)CC[C@H](O)c2ncccc21 [Example 227, (5S,8S)-N-(3,3-dimethylbutyl)-5-fluoro-8-hydroxy-5,6,7,8-tetrahydroquinoline-5-carboxamide] | 1000 to 3000
O=C(NCCOc1ccccc1)[C@]1(F)CC[C@H](O)c2ncccc21 [Example 228, (5S,8S)-5-fluoro-8-hydroxy-N-(2-phenoxyethyl)-5,6,7,8-tetrahydroquinoline-5-carboxamide] | 1000 to 3000
Cc1ncsc1C(CNC(=O)[C@]1(F)CC[C@H](O)c2ncccc21)N1CCC(F)(F)CC1 (stereo partly drawn) [Example 236, (5S,8S)-N-(2-(4,4-difluoropiperidin-1-yl)-2-(4-methylthiazol-5-yl)ethyl)-5-fluoro-8-hydroxy-5,6,7,8-tetrahydroquinoline-5-carboxamide] | 1000 to 3000
Cc1cnc2c(c1)[C@](F)(C(=O)NCc1ccc(Cl)cc1Cl)CC[C@@H]2O [Example 243, (5S,8S)-N-(2,4-dichlorobenzyl)-5-fluoro-8-hydroxy-3-methyl-5,6,7,8-tetrahydroquinoline-5-carboxamide] | 301 to 1000
Cc1cnc2c(c1)[C@](F)(C(=O)NCc1ccc(F)cc1Cl)CC[C@@H]2O [Example 244, (5S,8S)-N-(2-chloro-4-fluorobenzyl)-5-fluoro-8-hydroxy-3-methyl-5,6,7,8-tetrahydroquinoline-5-carboxamide] | 1000 to 3000
C[C@H](NC(=O)[C@]1(F)CC[C@](C)(O)c2ncccc21)c1ccc(F)cc1Cl [Example 271, (5S,8S)-N-((S)-1-(2-chloro-4-fluorophenyl)ethyl)-5-fluoro-8-hydroxy-8-methyl-5,6,7,8-tetrahydroquinoline-5-carboxamide] | 301 to 1000
C[C@@]1(O)CC[C@@](F)(C(=O)NCC2(N3CCOCC3)CCCCC2)c2cccnc21 [Example 275, (5S,8R)-5-fluoro-8-hydroxy-8-methyl-N-((1-morpholinocyclohexyl)methyl)-5,6,7,8-tetrahydroquinoline-5-carboxamide] | 1000 to 3000
Cc1cnc2c(c1)[C@](F)(C(=O)NCc1ccc(F)cc1Cl)CC[C@]2(C)O [Example 276, (5S,8S)-N-(2-chloro-4-fluorobenzyl)-5-fluoro-8-hydroxy-3,8-dimethyl-5,6,7,8-tetrahydroquinoline-5-carboxamide] | 301 to 1000
CN(CCO)C[C@@]1(O)CC[C@](F)(C(=O)NCc2ccc(Cl)cc2Cl)c2cccnc21 [Example 278, (5R,8S)-N-(2,4-dichlorobenzyl)-5-fluoro-8-hydroxy-8-(((2-hydroxyethyl) (methyl)amino)methyl)-5,6,7,8-tetrahydroquinoline-5-carboxamide] | 1000 to 3000
O=C1CO[C@@]2(CC[C@](F)(C(=O)NCc3ccc(Cl)cc3Cl)c3cccnc32)CN1 [Example 293, (2S,5′R)-N-(2,4-dichlorobenzyl)-5′-fluoro-5-oxo-6′,7′-dihydro-5′H-spiro [morpholine-2,8′-quinoline]-5′-carboxamide] | 1000 to 3000
Cc1cnc2c(c1)[C@](F)(C(=O)NCc1ccc(Cl)cc1Cl)CC[C@@]2(O)CO [Example 325, (5S,8S)-N-(2,4-dichlorobenzyl)-5-fluoro-8-hydroxy-8-(hydroxymethyl)-3-methyl-5,6,7,8-tetrahydroquinoline-5-carboxamide] | 1000 to 3000
O=C(NCCc1ccc(Cl)cc1Cl)[C@]1(F)CC[C@@](O)(CO)c2ncccc21 [Example 330, (5S,8S)-N-(2,4-dichlorophenethyl)-5-fluoro-8-hydroxy-8-(hydroxymethyl)-5,6,7,8-tetrahydroquinoline-5-carboxamide] | 301 to 1000
O=C(NCC1(c2ccc(Cl)cc2Cl)CCOCC1)[C@]1(F)CC[C@@](O)(CO)c2ncccc21 [Example 332, (5S,8S)-N-((4-(2,4-dichlorophenyl)tetrahydro-2H-pyran-4-yl)methyl)-5-fluoro-8-hydroxy-8-(hydroxymethyl)-5,6,7,8-tetrahydroquinoline-5-carboxamide] | 1000 to 3000

Second part, the compound after the results:

IC50 [nM] | SMILES
101 to 300 | O=C(NCc1nc(-c2ccc(Cl)cc2)cs1)[C@]1(F)CC[C@H](O)c2ncccc21 [Example 213, (5S,8S)-N-((4-(4-chlorophenyl)thiazol-2-yl)methyl)-5-fluoro-8-hydroxy-5,6,7,8-tetrahydroquinoline-5-carboxamide]
101 to 300 | O=C(NCc1ccccc1CN1CCOCC1)[C@]1(F)CC[C@H](O)c2ncccc21 [Example 214, (5S,8S)-5-fluoro-8-hydroxy-N-(2-(morpholinomethyl)benzyl)-5,6,7,8-tetrahydroquinoline-5-carboxamide]
101 to 300 | O=C(N[C@H]1C[C@@H]1c1ccccc1)[C@]1(F)CC[C@H](O)c2ncccc21 [Example 215, (5S,8S)-5-fluoro-8-hydroxy-N-((1S,2R)-2-phenylcyclopropyl)-5,6,7,8-tetrahydroquinoline-5-carboxamide]
101 to 300 | Cc1ccc(Cl)c(CNC(=O)[C@]2(F)CC[C@H](O)c3ncccc32)c1F [Example 216, (5S,8S)-N-(6-chloro-2-fluoro-3-methylbenzyl)-5-fluoro-8-hydroxy-5,6,7,8-tetrahydroquinoline-5-carboxamide]
101 to 300 | O=C(NCc1c(F)cccc1F)[C@]1(F)CC[C@H](O)c2ncccc21 [Example 217, (5S,8S)-N-(2,6-difluorobenzyl)-5-fluoro-8-hydroxy-5,6,7,8-tetrahydroquinoline-5-carboxamide]
301 to 1000 | O=C(N[C@H]1CCCc2ccccc21)[C@]1(F)CC[C@H](O)c2ncccc21 [Example 218, (5S,8S)-5-fluoro-8-hydroxy-N-((S)-1,2,3,4-tetrahydronaphthalen-1-yl)-5,6,7,8-tetrahydroquinoline-5-carboxamide]
301 to 1000 | O=C(NCCOc1cccc(C(F)(F)F)c1)[C@]1(F)CC[C@H](O)c2ncccc21 [Example 219]
301 to 1000 | O=C(NCC1(c2ccc(F)cc2)CC1)[C@]1(F)CC[C@H](O)c2ncccc21 [Example 220, (5S,8S)-5-fluoro-N-((1-(4-fluorophenyl)cyclopropyl)methyl)-8-hydroxy-5,6,7,8-tetrahydroquinoline-5-carboxamide]
301 to 1000 | O=C(N[C@@H]1C[C@H]1c1ccccc1)[C@]1(F)CC[C@H](O)c2ncccc21 [Example 222, (5S,8S)-5-fluoro-8-hydroxy-N-((1R,2S)-2-phenylcyclopropyl)-5,6,7,8-tetrahydroquinoline-5-carboxamide]
101 to 300 | O=C1CC[C@@](F)(C(=O)NCc2ncc(Cl)cc2Cl)c2cccnc21 [Example 255, (S)-N-((3,5-dichloro-pyridin-2-yl)methyl)-5-fluoro-8-oxo-5,6,7,8-tetrahydroquinoline-5-carboxamide]
50 to 100 | O=C(NC1CC1c1ccc(Cl)cc1Cl)[C@]1(F)CC[C@@](O)(CO)c2ncccc21 (stereo partly drawn) [Example 331, (5S,8S)-N-((trans)-2-(2,4-dichlorophenyl)cyclopropyl)-5-fluoro-8-hydroxy-8-(hydroxymethyl)-5,6,7,8-tetrahydroquinoline-5-carboxamide]
101 to 300 | O=C(NCc1ccc(Cl)cc1Cl)[C@@]1(F)CC[C@@H](OCCO)c2ncccc21 [Example 348, (5R,8R)-N-(2,4-dtchlorobenzyl)-5-fluoro-8-(2-hydroxyethoxy)-5.6,7,8-tetrahydroquinoline-5-carboxamide]
50 to 100 | O=C(NCc1ccc(Cl)cc1Cl)[C@@]1(F)CC[C@H](F)c2ncccc21 [Example 353, (5R,8S)-N-(2,4-dichlorobenzyl)-5,8-difluoro-5,6,7,8-tetrahydroquinoline-5-carboxamide]

From patent US11077100B2, “Tetrahydroquinoline derivatives as P2X7 receptor antagonists” (RaQualia Pharma Inc., priority 2017, dated 2021)
